# In patent US5919761A, “Peptides for heparin and low molecular weight heparin anticoagulation reversal” (The Board of Regents of the University of Michigan, priority 1995, dated 1999):
# Values joined by “and” are separate entries in the source; they are usually repeats but may differ in a detail not shown here. Equal values may be shown once. Peptide text beside a SMILES is read from it.
# Key:
# [1] = Percent change in platelet count after Enoxaparin reversal, canine study; format: in vivo; conditions: dogs, agent over 10 seconds
# Method: (§1) Seven female dogs (mean weight 15-20 kg) received intravenous standard, unfractionated heparin (150 IU/kg IV) or LMWH (Enoxaparin, Rhone-Poulac, France; 100 IU/kg factor Xa activity) followed by reversal with commercial salmine protamine (n-protamine purchased from Eli Lilly, Indianapolis, Ind., 1.5 mg/kg (100 IU/mg) IV) or an anticoagulation-reversing agent which is a protamine-like peptide variant identified hereinbelow. In these studies, the anticoagulation-reversing agents were administered over a 10 second interval to maximize the hemodynamic effects.
# [2] = test system: LMWH (Enoxaparin); assay: Factor Xa and IIa reversal after LMWH Enoxaparin, canine study; format: in vivo; conditions: dogs, 3 min
# Method: Similar studies were conducted to assess the ability of the protamine-like peptide analogs described in this section to reverse the anticoagulation effects of the LMWH, Enoxaparin. FIG. 5a through FIG. 5d are graphical representations of LMWH anticoagulation activities achieved by n-protamine (Protamine [+21]), and compounds [+18BE], [+18KDEL], and [+18RGD] plotted as a percent of reversal against time in minutes. […] Referring to FIG. 5c, compound [+18RGD] dramatically outperforms n-protamine in reversing the heparin antifactor Xa activity of Enoxaparin.
# [3] = Maximum hemodynamic changes and total toxicity score after standard heparin reversal, cell adhesion ligand analogs, canine study; conditions: dogs, agent over 10 seconds; for Maximum hemodynamic change, Mean BP: standard heparin 150 IU/kg IV; for Maximum hemodynamic change, Mean BP / Maximum hemodynamic change, CO / Maximum hemodynamic change, HR / Maximum hemodynamic change, VO2: 5 minutes; for Maximum hemodynamic change, CO / Maximum hemodynamic change, HR / Maximum hemodynamic change, VO2: standard heparin; for Total Toxicity Score: standard unfractionated heparin
# Method: In these studies, the anticoagulation-reversing agents were administered over a 10 second interval to maximize the hemodynamic effects.
# Hemodynamic studies were conducted by measuring mean blood pressure (Mean BP) in mm Mercury, maximum percent changes in cardiac output (CO) and systemic oxygen consumption (VO2), and heart rate (HR) in beats per minute. Measurements and calculations were made at baseline, before administration of standard, unfractionated heparin, 3 minutes before reversal, every 30 seconds for 5 minutes after reversal.
# Total toxicity scores (TTS) were developed in accordance with the method described hereinabove that reflected maximum declines in each of four parameters (MAP, CO, VO2 and HR) over the first 5 minutes after reversal.
# [4] = Maximum hemodynamic changes and total toxicity score after Enoxaparin reversal, canine study; conditions: dogs, agent over 10 seconds; for Maximum hemodynamic change, Mean BP: Enoxaparin 100 IU/kg; for Maximum hemodynamic change, Mean BP / Maximum hemodynamic change, CO / Maximum hemodynamic change, HR / Maximum hemodynamic change, VO2: 5 minutes; for Total Toxicity Score (TTS) / Maximum hemodynamic change, CO / Maximum hemodynamic change, HR / Maximum hemodynamic change, VO2: Enoxaparin
# Method: as §1
# [5] = Percent change in platelet count after standard heparin reversal, cell adhesion ligand analogs, canine study; format: in vivo; conditions: dogs, agent over 10 seconds
# Method: In addition to hemodynamic changes, Table 15 lists the percent change in platelet count following administration of n-protamine and the selected variants, as well as the factor Xa and factor IIa reversal, as a percent change at 3 minutes post administration of the compound.
# [6] = test system: standard, unfractionated heparin; assay: Factor Xa and IIa reversal after standard heparin, cell adhesion ligand analogs, canine study; format: in vivo; conditions: dogs, 3 min post administration
# Method: Anticoagulation reversal was assessed by a number of standard coagulation tests performed upon samples of venous blood in the manner described hereinabove. Measurements were made 3 minutes prior to heparin reversal (baseline) and 3 minutes, 10 minutes, and 30 minutes post-administration of the heparin reversal agent. […] Referring to FIGS. 4a through 4d, compound [+18RGD] performs as well, or better, than n-protamine in the standard coagulation tests performed in these studies.
# [7] = test system: standard, unfractionated heparin; assay: Percent reversal of standard heparin anticoagulation by variant peptides and protamine, in vivo canine study, coagulation tests; design: species or system dogs; conditions: for Percent reversal of heparin anticoagulation, ACT: heparin 150 IU/kg IV, agent 1.5 mg/kg IV over 10 seconds
# Method: Data are expressed as a mean ±1 SD. Statistical analysis using linear regression for determination of correlation coefficients, and analysis of variance (ANOVA) or unpaired two-way Student's t-test; p<0.05 was accepted as statistically significant.
# Anticoagulation reversal was assessed by a number of standard coagulation tests performed upon samples of venous blood: activated clotting time (ACT), prothrombin time (PT), activated partial thromboplastin time (aPTT), thrombin clotting time (TCT), heparin concentration by assay for FXa inhibitory activity (FXa), white cell count (WBC), and platelet counts (PLT). Measurements were made 3 minutes prior to heparin reversal (baseline) and 3 minutes and 30 minutes post-administration of the heparin reversal agent. The "Heparin" row sets forth the observed reversal as a consequence of expected heparin metabolism or degradation alone.
# [8] = Hemodynamic studies and total toxicity score after standard heparin reversal, canine study; conditions: dogs
# Method: As used hereinafter, the peptides will be identified by their total cationic charge value, e.g., [+8], [+16], etc.
# Hemodynamic studies were conducted by measuring mean arterial pressure (MAP), heart rate (HR), and maximum percent changes in cardiac output (CO) and systemic oxygen consumption (VO2).
# Total toxicity scores (TTS) were developed that reflected maximum declines in each of four parameters (MAP, CO, VO2 and HR) over the first 5 minutes after reversal, the latter being the time of expected greatest adverse hemodynamic effect. The maximum changes occurring in an individual dog over the first 5 minutes were divided by the standard deviation derived from the entire group of tested animals and the four scores were added, resulting in a TTS for each individual dog. The TTS values for each dog were then summed to obtain an average TTS and SD for each peptide studied.
Compound,Platelet (percent change in platelet count) [1],IIa Reversal [2],Xa Reversal [2],"Maximum hemodynamic change, Mean BP [3]","Maximum hemodynamic change, CO [3]","Maximum hemodynamic change, HR [3]","Maximum hemodynamic change, VO2 [3]",Total Toxicity Score [3],"Maximum hemodynamic change, Mean BP [4]",Total Toxicity Score (TTS) [4],"Maximum hemodynamic change, CO [4]","Maximum hemodynamic change, HR [4]","Maximum hemodynamic change, VO2 [4]",Platelet (percent change in platelet count) [5],IIa Reversal [6],Xa Reversal [6],also measured
"CC(=O)N[C@@H](CCC(=O)O)C(=O)N[C@@H](C)C(=O)N[C@@H](CCCNC(=N)N)C(=O)N[C@@H](CCCNC(=N)N)C(=O)N[C@@H](C)C(=O)N[C@@H](C)C(=O)N[C@@H](CCCNC(=N)N)C(=O)N[C@@H](CCCNC(=N)N)C(=O)N[C@@H](C)C(=O)N[C@@H](CCCNC(=N)N)C(=O)N[C@@H](CCCNC(=N)N)C(=O)N[C@@H](C)C(=O)N[C@@H](C)C(=O)N[C@@H](CCCNC(=N)N)C(=O)N[C@@H](CCCNC(=N)N)C(=O)N[C@@H](C)C(=O)N[C@@H](CCCNC(=N)N)C(=O)N[C@@H](CCCNC(=N)N)C(=O)N[C@@H](C)C(=O)N[C@@H](C)C(=O)N[C@@H](CCCNC(=N)N)C(=O)N[C@@H](CCCNC(=N)N)C(=O)N[C@@H](C)C(=O)N[C@@H](CCCNC(=N)N)C(=O)N[C@@H](CCCNC(=N)N)C(=O)N[C@@H](C)C(=O)N[C@@H](C)C(=O)N[C@@H](CCCNC(=N)N)C(=O)N[C@@H](CCCNC(=N)N)C(=O)N[C@@H](C)C(=O)N[C@@H](CCCNC(=N)N)C(=O)N[C@@H](CCCNC(=N)N)C(=O)NCC(=O)N[C@H](C(=O)N[C@@H](CCCCN)C(=O)N[C@@H](CC(=O)O)C(=O)N[C@@H](CCC(=O)O)C(=O)N[C@@H](CC(C)C)C(=O)O)C(C)C [[+18KDEL], acetyl-EA(R2 A2 R2 A)4 R2 GVKDEL] (Ac-EARRAARRARRAARRARRAARRARRAARRARRGVKDEL-OH)",-40%,98%,48%,-5 mm Mercury,-12%,-14 beats/min,-6%,-3.53 ± 1.65,-6 mm Mercury,-5.00 and -5.0 ± 3.44,-14%,-11 beats/min,-10%,-24%,94%,97%,
"CC(=O)N[C@@H](CCC(=O)O)C(=O)N[C@@H](C)C(=O)N[C@@H](CCCNC(=N)N)C(=O)N[C@@H](CCCNC(=N)N)C(=O)N[C@@H](C)C(=O)N[C@@H](C)C(=O)N[C@@H](CCCNC(=N)N)C(=O)N[C@@H](CCCNC(=N)N)C(=O)N[C@@H](C)C(=O)N[C@@H](CCCNC(=N)N)C(=O)N[C@@H](CCCNC(=N)N)C(=O)N[C@@H](C)C(=O)N[C@@H](C)C(=O)N[C@@H](CCCNC(=N)N)C(=O)N[C@@H](CCCNC(=N)N)C(=O)N[C@@H](C)C(=O)N[C@@H](CCCNC(=N)N)C(=O)N[C@@H](CCCNC(=N)N)C(=O)N[C@@H](C)C(=O)N[C@@H](C)C(=O)N[C@@H](CCCNC(=N)N)C(=O)N[C@@H](CCCNC(=N)N)C(=O)N[C@@H](C)C(=O)N[C@@H](CCCNC(=N)N)C(=O)N[C@@H](CCCNC(=N)N)C(=O)N[C@@H](C)C(=O)N[C@@H](C)C(=O)N[C@@H](CCCNC(=N)N)C(=O)N[C@@H](CCCNC(=N)N)C(=O)N[C@@H](C)C(=O)N[C@@H](CCCNC(=N)N)C(=O)N[C@@H](CCCNC(=N)N)C(=O)NCC(=O)N[C@@H](CCCNC(=N)N)C(=O)NCC(=O)N[C@@H](CC(=O)O)C(=O)N[C@@H](CO)C(=O)N1CCC[C@H]1C(=O)N[C@@H](C)C(N)=O [[+18RGD], acetyl-EA--(R2 A2 R2 A)4 R2 GRGDSPA-amide] (Ac-EARRAARRARRAARRARRAARRARRAARRARRGRGDSPA-NH2)",-31%,100%,72%,-2 mm Mercury,-3%,-3 beats/min,-4%,-1.43 ± 0.61,-1 mm Mercury,-2.68 and -2.68 ± 0.88,-3%,-3 beats/min,-7%,-27%,100%,100%,
P(K2 O2 G4)3 K2 O2 [[+8]],,,,,,,,,,,,,,,,,"in vivo heparin reversal (summary) ([7]; dogs, standard heparin): not capable of effect heparin reversal; Percent reversal of heparin anticoagulation, ACT ([7]; dogs, 3 min post-administration): 7%; Percent reversal of heparin anticoagulation, ACT ([7]; dogs, 30 min): 37%; Percent reversal of heparin anticoagulation, APTT ([7]; same study, 3 min): 0%; Percent reversal of heparin anticoagulation, FNa ([7]; same study, 3 min): 8%; Percent reversal of heparin anticoagulation, FXa ([7]; same study, 3 min): -1%; Percent reversal of heparin anticoagulation, PT ([7]; same study, 3 min): 21%; Percent reversal of heparin anticoagulation, TCT ([7]; same study, 3 min): 0%; Percent reversal of heparin anticoagulation, APTT ([7]; same study, 30 min): 50%; Percent reversal of heparin anticoagulation, FXa ([7]; same study, 30 min): 9%; Percent reversal of heparin anticoagulation, PT ([7]; same study, 30 min): 50%; Percent reversal of heparin anticoagulation, TCT ([7]; same study, 30 min): 0%; ΔHR [8]: -9; ΔMAP ([8]; average maximum decline in first five minutes after peptide administration): -1; average total toxicity score (TTS±SD) ([8]; first 5 minutes after reversal, more negative = more toxic): -1.9±1.1; ΔCO ([8]; maximum percent change): -8%; ΔVO2 ([8]; maximum percent change): -8%"
